ChEMBL document CHEMBL2440076, “New triarylpyrazoles as broad-spectrum anticancer agents: design, synthesis, and biological evaluation” (Eur J Med Chem, 2013)

Key:
BT-549 = assay: Growth inhibition of human BT549 cells assessed as cell growth at 10 uM after 48 hrs by sulforhodamine B assay; type: functional; details: BT-549, 48 h, read-out: Activity
PC-3 = assay: Growth inhibition of human PC3 cells assessed as cell growth at 10 uM after 48 hrs by sulforhodamine B assay; type: functional; details: PC-3, 48 h, read-out: Activity
TK-10 = assay: Growth inhibition of human TK10 cells assessed as cell growth at 10 uM after 48 hrs by sulforhodamine B assay; type: functional; details: TK-10, 48 h, read-out: Activity
SN12C = assay: Growth inhibition of human SN12C cells assessed as cell growth at 10 uM after 48 hrs by sulforhodamine B assay; type: functional; details: read-out: Activity
CAKI-1 [1] = assay: Growth inhibition of human CAKI-1 cells assessed as cell growth at 10 uM after 48 hrs by sulforhodamine B assay; type: functional; details: CAKI-1, 48 h, read-out: Activity
SW-620 [2] = assay: Growth inhibition of human SW620 cells after 48 hrs by sulforhodamine B assay; type: functional; details: SW-620, 48 h
HT-29 [3] = assay: Growth inhibition of human HT-29 cells after 48 hrs by sulforhodamine B assay; type: functional; details: HT-29, 48 h
KM12 [4] = assay: Growth inhibition of human KM12 cells after 48 hrs by sulforhodamine B assay; type: functional, cell-based; details: KM12, 48 h
NCI-H522 = assay: Growth inhibition of human NCI-H522 cells after 48 hrs by sulforhodamine B assay; type: functional; details: NCI-H522, 48 h
NCI-H23 [5] = assay: Growth inhibition of human NCI-H23 cells after 48 hrs by sulforhodamine B assay; type: functional; details: NCI-H23, 48 h
SR = assay: Growth inhibition of human SR cells after 48 hrs by sulforhodamine B assay; type: functional
CCRF-CEM = assay: Growth inhibition of human CCRF-CEM cells after 48 hrs by sulforhodamine B assay; type: functional
SK-MEL-5 [6] = assay: Growth inhibition of human SK-MEL-5 cells assessed as cell growth at 10 uM after 48 hrs by sulforhodamine B assay; type: functional; details: SK-MEL-5, 48 h, read-out: Activity
SK-MEL-28 = assay: Growth inhibition of human SK-MEL-28 cells assessed as cell growth at 10 uM after 48 hrs by sulforhodamine B assay; type: functional; details: SK-MEL-28, 48 h, read-out: Activity
Malme-3M = assay: Growth inhibition of human MALME-3M cells assessed as cell growth at 10 uM after 48 hrs by sulforhodamine B assay; type: functional; details: read-out: Activity
U-251 [7] = assay: Growth inhibition of human U251 cells assessed as cell growth at 10 uM after 48 hrs by sulforhodamine B assay; type: functional; details: U-251, 48 h, read-out: Activity
SW-620 [8] = assay: Growth inhibition of human SW620 cells assessed as cell growth at 10 uM after 48 hrs by sulforhodamine B assay; type: functional; details: SW-620, 48 h, read-out: Activity
HT-29 [9] = assay: Growth inhibition of human HT-29 cells assessed as cell growth at 10 uM after 48 hrs by sulforhodamine B assay; type: functional; details: HT-29, 48 h, read-out: Activity
KM12 [10] = assay: Growth inhibition of human KM12 cells assessed as cell growth at 10 uM after 48 hrs by sulforhodamine B assay; type: functional; details: KM12, 48 h, read-out: Activity
NCI-H23 [11] = assay: Growth inhibition of human NCI-H23 cells assessed as cell growth at 10 uM after 48 hrs by sulforhodamine B assay; type: functional; details: NCI-H23, 48 h, read-out: Activity
HOP-92 = assay: Growth inhibition of human HOP92 cells assessed as cell growth at 10 uM after 48 hrs by sulforhodamine B assay; type: functional; details: HOP-92, 48 h, read-out: Activity
MCF7 = assay: Growth inhibition of human MCF7 cells after 48 hrs by sulforhodamine B assay; type: functional; details: MCF7, 48 h
RXF 393 = assay: Growth inhibition of human RXF393 cells after 48 hrs by sulforhodamine B assay; type: functional; details: RXF 393, 48 h
CAKI-1 [12] = assay: Growth inhibition of human CAKI-1 cells after 48 hrs by sulforhodamine B assay; type: functional; details: CAKI-1, 48 h
A498 = assay: Growth inhibition of human A498 cells after 48 hrs by sulforhodamine B assay; type: functional, cell-based; details: A498, 48 h
ACHN = assay: Growth inhibition of human ACHN cells after 48 hrs by sulforhodamine B assay; type: functional
OVCAR-8 = assay: Growth inhibition of human OVCAR8 cells after 48 hrs by sulforhodamine B assay; type: functional; details: OVCAR-8, 48 h
OVCAR-5 = assay: Growth inhibition of human OVCAR5 cells after 48 hrs by sulforhodamine B assay; type: functional; details: OVCAR-5, 48 h
OVCAR-4 = assay: Growth inhibition of human OVCAR4 cells after 48 hrs by sulforhodamine B assay; type: functional; details: OVCAR-4, 48 h
SK-MEL-5 [13] = assay: Growth inhibition of human SK-MEL-5 cells after 48 hrs by sulforhodamine B assay; type: functional; details: SK-MEL-5, 48 h
UACC-257 = assay: Growth inhibition of human UACC257 cells after 48 hrs by sulforhodamine B assay; type: functional; details: UACC-257, 48 h
U-251 [14] = assay: Growth inhibition of human U251 cells after 48 hrs by sulforhodamine B assay; type: functional; details: U-251, 48 h
HOP-62 = assay: Growth inhibition of human HOP62 cells assessed as cell growth at 10 uM after 48 hrs by sulforhodamine B assay; type: functional; details: HOP-62, 48 h, read-out: Activity
A549 = assay: Growth inhibition of human A549/ATCC cells assessed as cell growth at 10 uM after 48 hrs by sulforhodamine B assay; type: functional; details: A549, 48 h, read-out: Activity
RPMI-8226 = assay: Growth inhibition of human RPMI8226 cells assessed as cell growth at 10 uM after 48 hrs by sulforhodamine B assay; type: functional; details: RPMI-8226, 48 h, read-out: Activity
[15] = read-out: LC50 (the source's name)

For `COc1cc(-c2nn(-c3cccc(NC(=O)Nc4ccc(Cl)c(C(F)(F)F)c4)c3)cc2-c2ccncc2)ccc1Cl`, the growth at 10 µM (BT-549) was 7.16%, the growth at 10 µM (PC-3) was -19.1% and the growth at 10 µM (TK-10) was 12.6%. It also gave a growth at 10 µM (SN12C) of 12.6%, a growth at 10 µM (CAKI-1 [1]) of 14.7% and a GI50 (SW-620 [2]) of 1.29 µM. The TGI (SW-620 [2]) was 29.9 µM, the CC50 (SW-620 [2]; [15]) was > 32.5 µM and the GI50 (HT-29 [3]) was 1.19 µM. It also gave a TGI (HT-29 [3]) of 4.45 µM, a CC50 (HT-29 [3]; [15]) of 21.5 µM and a GI50 (KM12 [4]) of 1.06 µM. For the same compound, the TGI (KM12 [4]) was 3.92 µM, the CC50 (KM12 [4]; [15]) was 14.9 µM and the GI50 (NCI-H522) was 1.14 µM. For the same compound, the LC50 (concentration killing 50% of cells) (NCI-H522) was > 32.5 µM, the TGI (NCI-H522) was 6.06 µM and the GI50 (NCI-H23 [5]) was 1.31 µM. The LC50 (NCI-H23 [5]) was > 32.5 µM, the TGI (NCI-H23 [5]) was 8.03 µM and the GI50 (SR) was 0.884 µM. For the same compound, the TGI (SR) was 2.48 µM, the CC50 (SR; [15]) was > 32.5 µM and the GI50 (CCRF-CEM) was 0.98 µM. The LC50 (CCRF-CEM) was > 32.5 µM, the TGI (CCRF-CEM) was > 32.5 µM and the growth at 10 µM (SK-MEL-5 [6]) was -65.3%. For the same compound, the growth at 10 µM (SK-MEL-28) was 8.8%, the growth at 10 µM (Malme-3M) was -14.9% and the growth at 10 µM (U-251 [7]) was -20.9%. For the same compound, the growth at 10 µM (SW-620 [8]) was 15.4%, the growth at 10 µM (HT-29 [9]) was -0.5% and the growth at 10 µM (KM12 [10]) was 2.88%. For the same compound, the growth at 10 µM (NCI-H23 [11]) was 5.69%, the growth at 10 µM (HOP-92) was -37.5% and the GI50 (MCF7) was 0.919 µM. The LC50 (MCF7) was > 32.5 µM, the TGI (MCF7) was > 32.5 µM and the GI50 (RXF 393) was 1.18 µM. The LC50 (concentration killing 50% of cells) (RXF 393) was > 32.5 µM, the TGI (RXF 393) was 6.29 µM and the GI50 (CAKI-1 [12]) was 0.992 µM. The TGI (CAKI-1 [12]) was 4.72 µM, the CC50 (CAKI-1 [12]; [15]) was > 32.5 µM and the GI50 (A498) was 0.837 µM. For the same compound, the IC50 (A498) was 0.84 µM, the TGI (A498) was 6.97 µM and the CC50 (A498; [15]) was > 32.5 µM. For the same compound, the GI50 (ACHN) was 1.1 µM, the TGI (ACHN) was 15.6 µM and the CC50 (ACHN; [15]) was > 32.5 µM. The GI50 (OVCAR-8) was 1.05 µM, the TGI (OVCAR-8) was 5.87 µM and the CC50 (OVCAR-8; [15]) was > 32.5 µM. For the same compound, the GI50 (OVCAR-5) was 3.09 µM, the LC50 (concentration killing 50% of cells) (OVCAR-5) was > 32.5 µM and the TGI (OVCAR-5) was 11 µM. The GI50 (OVCAR-4) was 1.29 µM, the LC50 (concentration killing 50% of cells) (OVCAR-4) was > 32.5 µM and the TGI (OVCAR-4) was 25.6 µM. The GI50 (SK-MEL-5 [13]) was 0.818 µM, the LC50 (concentration killing 50% of cells) (SK-MEL-5 [13]) was 10.4 µM and the TGI (SK-MEL-5 [13]) was 2.89 µM. For the same compound, the GI50 (UACC-257) was 1.21 µM, the TGI (UACC-257) was 6.03 µM and the CC50 (UACC-257; [15]) was 29.2 µM. The GI50 (U-251 [14]) was 0.985 µM, the LC50 (concentration killing 50% of cells) (U-251 [14]) was 24.7 µM and the TGI (U-251 [14]) was 4.18 µM. It also gave a growth at 10 µM (HOP-62) of 5.4%, a growth at 10 µM (A549) of -10.4% and a growth at 10 µM (RPMI-8226) of -8.66%.
